{
  "source": "patent US9808470B2",
  "about": "“Estrogenic components for use in the treatment of neurological disorders” (UNIVERSITE DE LIEGE, priority 2012, dated 2017)",
  "key": {"O4-positive cells": {"tested_on": "O4-positive cells", "assay": "Ex.6 IL-1β induced diffuse white matter injury mouse model: pre-oligodendrocyte maturation gene expression (qRT-PCR)", "type": "in vivo", "conditions": "P5", "method": "Experimental protocols were approved by the institutional guidelines of the Institut National de la Santé et de la Recherche Scientifique (Inserm, France), and met the guidelines for the United States Public Health Service's Policy on Humane Care and Use of Laboratory Animals (NIH, Bethesda, Md., USA). Experiments were performed using OF1 strain mice purchased from Charles River (L'Arbresle, France) and born in our animal facility. Animals were housed under a 12 h light-dark cycle, had access to food and water ad libitum. Sex was determined at birth and confirmed at sacrifice. To avoid any potential variability linked to sex to differences. only male pups were used. […]\nPreparation of samples for quantitative reverse-transcriptase polymerase-chain reaction (qRT-PCR), primer design, and PCR protocol, were similar to that previously described (Favrais et al., 2011; Chhor et al., 2013). […] RNA quality and concentration were assessed by spectrophotometry with the Nanodrop™ apparatus (Thermoscientific, Wilmington, Del., USA). […] The relative quantities are expressed as the specific ratio between the gene of interest and Rpl13 or GAPDH. The data are presented as relative mRNA units with respect to control values (expressed as a fold-difference with respect to the mean of sham values)."}, "[1]": {"tested_on": "glial fibrillary acidic protein (GFAP)", "assay": "Ex.8 neuroprotective HIE rat model: blood serum GFAP ELISA", "type": "in vivo", "method": "Newborn rat pups were assigned to one of the following 14 groups from postnatal day 4 (FIG. 23(A)): Sham group (n=12), Vehicle group (n=17), 5 mg/kg/day E4 (n=13), 10 mg/kg/day E4 (n=10), 5 mg/kg/day E4+1.6 mg/kg/day PROG (n=11), 10 mg/kg/day E4+1.6 mg/kg/day PROG (n=11), 5 mg/kg/day E4+16 mg/kg/day PROG (n=11), 10 mg/kg/day E4+16 mg/kg/day PROG (n=11), 5 mg/kg/day E4+136 ng//kg/day E2 (n=11), 10 mg/kg/day E4+136 ng/kg/day E2 (n=11), 5 mg/kg/day E4+1.6 mg/kg/day PROG+136 ng/kg/day (n=13) E2, 10 mg/kg/day E4+1.6 mg/kg/day PROG+136 ng/kg/day E2 (n=16), 5 mg/kg/day E4+16 mg/kg/day PROG+136 ng/kg/day E2 (n=11), 10 mg/kg/day E4+16 mg/kg/day PROG+136 ng/kg/day groups (n=13). Intraperitoneal injections of the pups from study groups were performed from postnatal day 4 to postnatal day 7 inclusively. At day 7, 30 minutes after last injection, animals were anesthetized with isoflurane (induction, 3.0%; maintenance, 1.5%), and the rat pups from vehicle and all the other groups, except the sham group, passed through surgery encompassing left common carotid artery double ligation and cut. After the procedure, the pups were returned to their dams and were allowed to recover for 1 hour. The pups were then placed in the humidified hypoxic in vivo cabinet (CoyLab, Grass Lake, Mich., USA). […]"}},
  "data": [
    {"smiles": "C[C@]12CC[C@@H]3c4ccc(O)cc4CC[C@H]3[C@@H]1[C@@H](O)[C@@H](O)[C@@H]2O", "note": "[E4, 1,3,5(10)-estratrien-3,15α,16α,17β-tetrol]", "values": [
      {"measurement": "IL-1β-induced up-regulation in ID2 expression", "setting": "O4-positive cells; 5 mg/kg and 10 mg/kg E4 co-treatment", "result": "prevented"},
      {"measurement": "expression of Hey2", "setting": "O4-positive cells; IL-1β+E4 5 mg/kg, vs IL-1β alone", "result": "trend to up-regulation"},
      {"measurement": "concentration of GFAP in blood serum", "setting": "[1]; 5 mg/kg/day, PND14", "result": "6220.49 ± 1763.17", "unit": "pg/mL"},
      {"measurement": "concentration of GFAP in blood serum", "setting": "[1]; 10 mg/kg/day E4, PND14", "result": "12413.45 ± 2243.05", "unit": "pg·mL"}
    ]}
  ]
}
